This note sets out measurements from patent publication US11883398B2, “Dipeptidylpeptidase 4 inhibition enhances lymphocyte trafficking, improving both naturally occurring tumor immunity and immunotherapy” (INSTITUT PASTEUR, priority 2015, dated 2024).

Molecules are shown by their SMILES. Entries after “also recorded” stand apart in the source; their conditions may differ.

One assay deals with B16F10 melanoma. Briefly: Subcutaneous B16F10 melanoma tumor growth in vivo. Set-up: species or system mouse. How it is done:
Mice used were 7-12 weeks old. […] B16F10 and […] (Ovalbumin-expressing B16F10 cells, gift from C. Reis e Sousa) tumor cells were cultured in DMEM (Gibco) supplemented with 10% FCS (PAA), 0.1 mM non-essential amino acids, 1 mM sodium pyruvate, 10 mM Hepes, 70 μM beta-mercaptoethanol and 23 μg/ml gentamycin (all from Gibco). CT26 colon carcinoma cells were cultured in RPMI (Gibco) supplemented as described for DMEM. Cells for injections were passaged 1-2 times after thawing, before use. WT and genetically modified mice were subcutaneously injected with 2×10^5 B16 or 5×10^5 CT26 cells in the shaved right flank. […] For blocking of chemokine and chemokine receptors, WT mice were intraperitoneally injected with 100 μg of hamster a-mCXCR3 (clone CXCR3-173, BioLegend), 100 μg of hamster α-mCCR5 (clone HM-CCR5, BioLegend), 50 μg of rat anti-mCXCL10 (clone 134013, R&D systems) and 20 μg of rat-α-mCXCR4 (clone 2B11/CXCR4, BD Biosciences) or with respective isotype antibodies (hamster IgG (clone HTK888, BioLegend, used as control for mCXCR3 and mCCR5 blockage); rat IgG2a (clone 54447, R&D systems, used as control for mCXCL10 blockade) and rat IgG2b (clone A95-1, BD Biosciences, used as control for mCXCR4 blockade). […] For CXCL10 neutralization, antibodies were injected on day 2, 5, 8 and 11 after tumor cell injection. For immunotherapy protocols, mice were intraperitoneally injected with 100 μg of mouse α-CTLA-4 (clone 9D9, Bioxcell), 200 μg of PD1 (clone RMP1-14, Bioxcell), a combination of 100 μg of α-CTLA-4+200 μg of a-PD1 or control isotypes (100 μg […] and 200 μg rat IgG2a (clone 2A3), both from Bioxcell) on day 3, 6 and 9 after tumor cell implantation. For adoptive cell transfer experiments, Pmel-1 Thy-1.1^+Thy-1.1^+, Cxcr3^-/- Thy-1.1^+Thy-1.2^+ Pmel-1 or OT1 splenocytes were activated ex-vivo, by incubation with 1 nM of human gp100 (for Pmel-1 cells) or […] (for OT1 cells) peptides for 1h at room temperature with agitation. Splenocytes were then washed and resuspended in R10 supplemented with 30U/mL of recombinant human IL-2. CD8^+ T cells were expanded for 6-7 days before used. […] For analysis of tumor growth, activated OT1 cells were injected intravenously (1×10^5 cells per mouse) into gender matched tumor-bearing mice, 3 days after tumor cell injection. Tumor height and width were measured with a caliper and tumor volume was calculated (Elliptical volume=width^2×height×0.523). […] Lungs with more than 100 metastatic nodules were defined as 100.

The next assay concerns CT26 colon carcinoma. Briefly: Subcutaneous CT26 colon carcinoma tumor growth in vivo. Set-up: species or system mouse. How it is done:
Mice used were 7-12 weeks old. […] B16F10 and […] (Ovalbumin-expressing B16F10 cells, gift from C. Reis e Sousa) tumor cells were cultured in DMEM (Gibco) supplemented with 10% FCS (PAA), 0.1 mM non-essential amino acids, 1 mM sodium pyruvate, 10 mM Hepes, 70 μM beta-mercaptoethanol and 23 μg/ml gentamycin (all from Gibco). CT26 colon carcinoma cells were cultured in RPMI (Gibco) supplemented as described for DMEM. Cells for injections were passaged 1-2 times after thawing, before use. WT and genetically modified mice were subcutaneously injected with 2×10^5 B16 or 5×10^5 CT26 cells in the shaved right flank. […] For blocking of chemokine and chemokine receptors, WT mice were intraperitoneally injected with 100 μg of hamster a-mCXCR3 (clone CXCR3-173, BioLegend), 100 μg of hamster α-mCCR5 (clone HM-CCR5, BioLegend), 50 μg of rat anti-mCXCL10 (clone 134013, R&D systems) and 20 μg of rat-α-mCXCR4 (clone 2B11/CXCR4, BD Biosciences) or with respective isotype antibodies (hamster IgG (clone HTK888, BioLegend, used as control for mCXCR3 and mCCR5 blockage); rat IgG2a (clone 54447, R&D systems, used as control for mCXCL10 blockade) and rat IgG2b (clone A95-1, BD Biosciences, used as control for mCXCR4 blockade). […] Tumor height and width were measured with a caliper and tumor volume was calculated (Elliptical volume=width^2×height×0.523). […]

For another assay, the system named is B16F10 tumors. As to the kind of experiment: Histology of B16F10 tumors (CD31, CD3, H&E). As to conditions: untreated vs sitagliptin-treated mice. Format: in vivo, mouse. How it is done:
B16F10 tumors were dissected and fixed in JB fixative (zinc acetate 0.5%, zinc chloride 0.05%, and calcium acetate 0.05% in Tris buffer, pH 7) for 48 hours, prior to being embedded in low-melting point paraffin (Poly Ethylene Glycol Distearate; Sigma, USA). 5 μm thick paraffin sections were deparafinized in absolute ethanol, air dried, and routinely stained with hematoxylin-eosin or used for immunolabelling. For immunohistochemistry, the following primary antibodies were used: anti-CD3 (rabbit α-human, clone A0452, DAKO, Carpinteria, CA) and anti-CD31 (rat a-mouse, clone 1/75e, BD Pharmingen, Franklin Lake, NJ, USA). CD31 immunolabelled sections were digitalized using a Zeiss Axio Scan Z.1 at ×20. For histomorphometry of blood vessels, CD31 positive profiles were manually delineated on digitalized images, using the “area” tool of the Zen software (Zeiss) at a magnification of 30%. The whole tumor surface was also delineated in the same way at a magnification of 2%. Mean number of blood vessels per mm2 and mean vessel area were then calculated for each group of mice.

Another assay deals with CXCR3-expressing T cells. Briefly: Model of trafficking into the peritoneal cavity. It is filed as in vivo, mouse. How it is done: (§1) WT and Dpp4^−/− mice were intraperitoneally injected with PBS or 1 μg of mCXCL10, mCXCL9 or mCCL5 (all from Peprotech). At the indicated time points, mice were sacrificed and peritoneal cells were collected in 10 mL of PBS. For thioglycollate induced peritonitis mice were intraperitoneally injected with thioglycollate 3% weight/volume, 24 hours before collection of peritoneal cells.
Fluorochrome-conjugated anti-mouse CD3 (clone145-2C11), CD8 (clone 53-6.7), CD4 (clone RM4-5), NK1.1 (clone PK136), CD49b (clone DX5), CD25 (clone PC61), B220 (clone RA3-6B2), Ly6G (clone 1A8), Ly6C (clone AL-21), CD11 b (clone M1/70) Siglec-F (clone E50-2440), MHCII IA-IE (clone M5/114.15.2), CD45.2 (clones 56-0454-82 and 109830), Thy-1.1 (clone HIS51), Thy-1.2 (clone 53-2.1), DPP4 (clone H194-112) and CXCR3 (clone CXCR3-173) were from eBiosciences and BD Biosciences. Fluorochrome conjugated anti-F4/80 (clone CI:A3-1) was from AbDserotec. For exclusion of dead cells, Live/Dead fixable Aqua reagent (Invitrogen) was used. For all staining protocols, cell suspensions were incubated with mouse CD16/CD32 Fc Blocking antibodies (BD Biosciences) prior to antibody. For analysis of peritoneal cavity infiltrates, cells were washed and incubated with a cocktail of fluorochrome-conjugated antibodies. For analysis of tumor infiltrates, B16F10 tumors were collected at the indicated time points and digested in PBS supplemented with 2.7 mg/ml of Collagenase (Roche) and 23U/ml of Deoxyribonuclease I (Invitrogen) for 30 min, 37° C. Digestion was terminated by adding PBS supplemented with 2% FCS and 5 mM EDTA (Gibco). Tumor cell suspensions were obtained after filtration over a 70 μm cell strainer. For determination of cell numbers, the […] COUNTING BEADS reagent (Invitrogen) was used. Flow cytometry was performed using a BD LSRFORTESSA or a BD CANTO cytometer, with DIVA software. Computer analysis was done with FLOWJO (Treestar).

The nature of assay [1]: Thioglycollate induced peritonitis. It is filed as in vivo, mouse. The settings on record: 24 h after intraperitoneal thioglycollate, sitagliptin vs control. The method, then: as §1

Consider `N[C@@H](CC(=O)N1CCn2c(nnc2C(F)(F)F)C1)Cc1cc(F)c(F)cc1F` [sitagliptin], for which, in the assay on B16F10 melanoma (Cxcl10-/- mice, sitagliptin vs control), the “B16F10 tumor growth in Cxcl10-/- mice” value is “the delayed tumor growth achieved by DPP4 inhibition was absent”. In the assay with B16F10 melanoma (Cxcr3-/- mice, sitagliptin vs control), the “B16F10 tumor growth in Cxcr3-/- mice” value is “abrogated the delayed tumor growth”. In addition, the “B16F10 tumor growth in Dpp4-/- mice” value with B16F10 melanoma (Dpp4-/- mice, sitagliptin vs control chow) is on record as “did not influence the kinetics of melanoma growth”. For the same molecule, the “B16F10 tumor growth in Rag2-/- mice” value in the assay on B16F10 melanoma (Rag2-/- mice, sitagliptin vs control) is given as “the beneficial effects of DPP4 inhibition were lost”. In addition, in the assay with B16F10 melanoma (WT mice, sitagliptin vs control chow), the B16F10 tumor growth entry is given as “reduced tumor growth”. Also, the “B16F10 tumor growth with CXCR4 blocking in vivo” value with B16F10 melanoma (anti-mCXCR4 antibody, sitagliptin vs control) is on record as “did not impact sitagliptin-mediated inhibition of tumor growth”. The “B16F10 tumor growth in wild-type animals treated with CXCL10 blocking antibodies” value with B16F10 melanoma (loss of sitagliptin effect as in Cxcl10-/- mice) is recorded as “confirmed”. Moreover, in the assay with B16F10 melanoma (sitagliptin chow started 3, 5 or 7 days after tumor implantation), the “growth of established B16F10 tumors” value is listed as “delay in tumor growth if sitagliptin was administrated within 5 days after tumor cell implantation”. The CT26 tumor growth result in the assay with CT26 colon carcinoma (BALB/c mice, sitagliptin vs control chow) is “marked delay of CT26 tumor growth; also recorded: delayed CT26 growth”. The “CT26 tumor growth with CXCR3 blocking antibodies” value in the assay with CT26 colon carcinoma (anti-CXCR3 antibody, sitagliptin vs control) was “loss of protection”. Further, in the assay with B16F10 tumors, the “number and diameter of tumor blood vessels (CD31 staining)” value is recorded as “no difference in the number, nor the diameter of blood vessels”. In addition, in the assay with CXCR3-expressing T cells (after intraperitoneal mCXCL10, control or sitagliptin-fed mice), the “recruitment of polymorphonuclear cells into the peritoneal cavity” value is on record as “did not show differential recruitment”. Also, in the assay with CXCR3-expressing T cells (after intraperitoneal mCXCL10, sitagliptin vs control), the “CXCR3 expression on peripheral blood T cells” value is recorded as “unaltered CXCR3 expression”. Further, the “mCXCL10-mediated infiltration of T cells into the peritoneal cavity” value with CXCR3-expressing T cells (intraperitoneal mCXCL10, sitagliptin vs control chow) is “enhanced mCXCL10-mediated infiltration of T cells”. Also, in the assay on CXCR3-expressing T cells (peritoneal cavity after mCXCL10 injection, sitagliptin vs control), the “CXCR3 plasma membrane expression on migrating T cells” value was “lower”. Further, the “thioglycollate-induced neutrophil, monocyte and eosinophil migration” value in assay [1] is given as “no differences were observed”.
